Test results taken from patent publication US12194024B2, “Pharmaceutical composition of MDM2 inhibitor and use thereof for preventing and/or treating disease” (ASCENTAGE PHARMA (SUZHOU) CO., LTD., priority 2019, dated 2025).

Assays:
SKM-1 = test: CellTiter-Glo (CTG) cell proliferation experiment; assay type: cell-based; conditions: Homo sapiens, TP53 mut, 72 hours, read-out: IC50 values, nM (Mean ± SD, n = 2 or 3)
NCI-H2122 = test: CTG cell proliferation experiment, NSCLC; assay type: cell-based; conditions: Homo sapiens; NCI-H2122, STK11 and KRAS co-mutated; 72 hours
Protocol: (§1) For the combined experiment, the final volume of 2 test substances is 5 μl/well.
(§2) The nonlinear regression data analysis method of Graphpad Prism 6.0 software ([…]) is used for calculating IC50.
(§3) For the combined experiment, the average fluorescence value of the 3 repeated wells of the single drug control is normalized for calculating cell survival rate.

A549 = test: CTG cell proliferation experiment, NSCLC; assay type: cell-based; conditions: Homo sapiens; A549, STK11 and KRAS co-mutated; 72 hours
Protocol: as §1, §2, §3

NCI-H460 = test: CTG cell proliferation experiment, NSCLC; assay type: cell-based; conditions: Homo sapiens; NCI-H460, STK11 and KRAS co-mutated; 72 hours
Protocol: as §1, §2, §3

MOLM-13 = test: CellTiter-Glo (CTG) cell proliferation experiment; assay type: cell-based; conditions: Homo sapiens, TP53 wt, FLT3-ITD, 72 hours, read-out: IC50 values, nM (Mean ± SD, n = 2 or 3)
OCI-AML-3 = test: CellTiter-Glo (CTG) cell proliferation experiment; assay type: cell-based; conditions: Homo sapiens, TP53 wt, FLT3 wt, 72 hours, read-out: IC50 values, nM (Mean ± SD, n = 2 or 3)
[1] = test system: human OCI-AML-3 AML xenograft tumor; test: Subcutaneous OCI-AML-3 AML mouse xenograft tumor model; assay type: in vivo, NOD SCID mice; conditions: Compound 2 50 mg/kg orally q2d, Azacitidine 2 mg/kg i.v., Decitabine 1 mg/kg i.v.
Protocol: For subcutaneous model, OCI-AML-3 cells (1×10^6) are injected subcutaneously into the right side of the abdomen of 6- to 8-week-old mice. About 10 days after the cell inoculation, the mice are randomly divided into groups based on the primary tumor size achieving about 100-150 mm^3 of average tumor volume.
The tumor diameter is measured twice using a vernier caliper each week. The computational formula of the tumor volume (TV) is: TV=a×b^2/2. In the computational formula, a and b represent the length and width of the tumor measurement respectively. The computational formula of the relative tumor volume (RTV) is: RTV=VtN1. In the computational formula, V1 is the tumor volume when being grouped and administered, and Vt is the tumor volume when being measured at a certain day after the administration.
The tumor remission rate (%) is derived by dividing the number of SD (Stable Disease), PR (Partial response) and CR (Complete response) appearing in the tumor bearing mice after treatment by the total number of mice in the group×100%.
The synergistic analysis uses the following formula (reference can be made to Gould S E et al., Translational value of mouse models in oncology drug development, Nature medicine, 2015 21, 431-439): synergistic factor=((A/C)×(B/C))/(AB/C); A=RTV value of the A drug alone group; B=RTV value of the B drug alone group; C=RTV value of the vehicle control group, AB=RTV value of the AB combined group (Clarke R., Issues in experimental design and endpoint analysis in the study of experimental cytotoxic agents in vivo in breast cancer and other models[J], Breast Cancer Research & Treatment, 1997, 46 (2-3):255-278).
For subcutaneous model, OCI-AML-3 cells (1×10^6) are injected subcutaneously into the right side of the abdomen of 6- to 8-week-old mice. About 10 days after the cell inoculation, the mice are randomly divided into groups based on the primary tumor size achieving about 100-150 mm^3 of average tumor volume. Compound 2 is administered alone or in combination (50 mg/kg, is taken orally, every other day for 15 days) and Aza (2 mg/kg, intravenous injection each day for 7 days) or Dec (1 mg/kg, intravenous injection each day for 7 days). The tumor volume is measured twice using a vernier caliper each week and is represented by following formula in mm^3: V=0.5a×b^2; in the formula, a and b are the long diameter and short diameter of the tumor respectively. […] RTV=VtN1; wherein V1 and Vt are the average tumor volume on the first day (day 1) in the treatment, and the average tumor volume of a certain time point (day t) respectively.
Azacitidine is administered following 2 mg/kg, caudal vein injection, qd×7d, drug withdrawal 7 days, then qd×2 day regimens for seven days (corresponding to the number 68 regimen in table 7).

MOLM-13 cells = test: Annexin V-FITC/PI apoptosis by flow cytometer; assay type: cell-based, human; conditions: 48 hours
Source text: The activation of P53 signaling pathway can induce apoptosis, cycle arrest, or senility of cells. […] Therefore, Annexin V-PI fluorescence probe and flow cytometer are used for analyzing the apoptosis of MOML-13 cells after being treated with compound 2 alone or in combination with Decitabine, Azacitidine or Cytarabine (Ara-C).

HL-60 = test: CellTiter-Glo (CTG) cell proliferation experiment; assay type: cell-based; conditions: Homo sapiens, TP53 Del, 72 hours, read-out: IC50 values, nM (Mean ± SD, n = 2 or 3)
[2] = test system: dimethylbenzanthracene-induced rat myelodysplastic syndrome (MDS); test: Dimethylbenzanthracene-induced rat myelodysplastic syndrome (MDS) model; assay type: in vivo, SD rat; conditions: p.o., q2d×21 d; for average WBCB value of bone marrow: MDS model group 16.89±2.75; for average PLT value of bone marrow: MDS model group 52±2.49
Protocol: Multiple human-derived rat MDS model is used for evaluating the in vivo anti-tumor effect of compound 2 alone.
The rat myelodysplastic syndrome (MDS) model is constructed using a chemical mutagenic agent dimethylbenzanthracene (DMBA). in the rat MDS model, the changes of myelogram and hemogram are similar to that of human myelodysplastic syndromes, and it is confirmed that it can be used for the anti-MDS effect study of drugs. DMBA is administered at 50 mg/kg, i.v. Following the once per week regimen for 4 weeks totally to establish the rat MDS model. One week after the end of DMBA administration (day 28), peripheral blood is collected from the caudal vein for routine blood test to determine whether the model is established successfully.
The animals are randomly divided into groups according to the PLT level on day 28, wherein a vehicle control group (Vehicle), two dosage groups of compound 2 (10 mg/kg) and compound 2 (30 mg/kg) (corresponding to the number 23 regimen in table 3), and healthy control group (naive) are totally set, each group has 5 animals.
Compound 2 is administered following 10 mg/kg or 30 mg/kg, p.o., q2d×21 d regimens. After the administration, the peripheral blood and bone marrow cells from each group of animals for routine blood analysis.

## CCN1[C@@H](C(=O)NC23CCC(C(=O)O)(CC2)CC3)[C@H](c2cccc(Cl)c2F)[C@]2(C(=O)Nc3cc(Cl)ccc32)C12CCCCC2 [Compound 2]
SKM-1
  IC50: 8950 ± 570 nM
NCI-H2122
  IC50: 79 nM
A549
  IC50: 33 nM
NCI-H460
  IC50: 330 nM
MOLM-13
  IC50: 26.8 ± 4.9 nM
OCI-AML-3
  IC50: 316 ± 97 nM
[1]
  T/C value (%) (d15): 84.8%
[1]; d15, vehicle 16.5 ± 4.1
  Relative tumor volume (RTV, Mean ± SEM): 14.0 ± 2.7
MOLM-13 cells; 40 nM
  MOLM-13 cells being apoptotic (Annexin V+ cells): about 31.0%
MOLM-13 cells; 110 nM
  MOLM-13 cells being apoptotic (Annexin V+ cells): ~55.1%
MOLM-13 cells; 1000 nM
  MOLM-13 cells being apoptotic (Annexin V+ cells): ~96.8%
HL-60
  IC50: 2560 ± 582 nM
[2]; 10 mg/kg
  average WBCB value of bone marrow: 47.5±10.13 cells/μl
  average PLT value of bone marrow: 116±9.35 cells/μl
[2]; 30 mg/kg
  average WBCB value of bone marrow: 62.53±13.08 cells/μl
  average PLT value of bone marrow: 124.2±23.8 cells/μl
